The nature of data set [1]: Quantification of doxycycline in formulations 1-3 by LC-MS/MS (stability). Conditions: over the time period studied (three months) under the storage conditions 5-25° C. The data set is classed as physicochemical. As to the method:
2.0-5.0 mg of doxycycline hyclate, usp (Medisca, CAS 24390-14-5, code 0434-04, lot 59177/D) was weighed into a scintillation vial and the mass was recorded. The recorded mass was then used to calculate the volume of solvent needed to generate a final concentration of 1 mg/mL and that amount of 60:28:12 H2O:CH3CN:MeOH was accurately added to the vial using a pipette. The solution was vortexed for 30 seconds or until the doxycycline hyclate was completely dissolved.
A 50 μg/mL solution of doxycycline hyclate was prepared by adding 50 μL of 1 mg/mL stock solution to 950 μL of methanol/water (50:50) and the resulting solution was vortexed for 10 seconds. […]
5-10 mgs of exemplary formulation 3 to be analyzed was weighed into a scintillation vial in duplicate. The mass was recorded and used to calculate the amount of methanol/water (50:50) to add to make up to 1 mg/mL and this was added. […]
Doxycycline was extracted in methanol:water from cream formulations by sonication, diluted and then quantified using liquid chromatography-triple quadruple mass spectrometry (LC-MS/MS). A calibration curve calculated by the peak area ratio of concentration of an analytical standard of doxycycline to an internal standard was used to calculate the concentrations of unknowns and establish linearity and LLOQ. […]

The conditions of data set [2]: compounded from commercial tablets in the vehicles; Papich et al. (2013); cited from earlier work.

Consider one substance from US20180243212A1, “TRANSDERMAL FORMULATIONS FOR DELIVERY OF DOXYCYCLINE, AND THEIR USE IN THE TREATMENT OF DOXYCYCLINE-RESPONSIVE DISEASES AND CONDITIONS” (DELIVRA, INC., priority 2015, published 2018).

Take Doxycycline: in data set [1], the “degradation of the doxycycline” value is below 10%. Besides, the “time over which the concentration of DOX can be assured” value in data set [2] is recorded as at most 7 days.
